From patent US20080051387A1, “TETRAHYDROPYRIDO[3,4-D]PYRIMIDINES AND RELATED ANALOGUES” (priority 2006, published 2008)

Target: T1, chimeric human H3 receptor (Homo sapiens, UniProt Q9Y5N1)
T1 construct: rat Galpha-i2 (Gnai2, rat); made in house; host or cells: Sf9 insect cells (baculovirus); P2 membranes
Assay: Chimeric human H3 receptor GTP binding assay (agonist-stimulated GTP-gamma35S binding, Example 7)
Format: biochemical
Details: P2 membranes of Sf9 cells, 1 μM histamine as agonist, Ki from IC50 by Cheng-Prusoff; read-out: Ki
Excerpt: This Example illustrates a representative assay for evaluating agonist-stimulated GTP-gamma^35S binding (“GTP binding”) activity. […] This agonist-stimulated GTP binding activity can also be used to detect partial agonism mediated by antagonist compounds. A compound analyzed in this assay is referred to herein as a “test compound.”
Four independent baculoviral stocks (one directing the expression of the chimeric human H3 receptor and three directing the expression of each of the three subunits of a heterotrimeric G-protein) are used to infect a culture of Sƒ9 cells as described above. P2 membranes are prepared as described above, and agonist-stimulated GTP binding on the P2 membranes is assessed using histamine (Sigma Chemical Co., St. Louis, Mo.) as agonist in order to ascertain that the receptor/G-protein-alpha-beta-gamma combination(s) yield a functional response as measured by GTP binding. P2 membranes are resuspended by Dounce homogenization (tight pestle) in GTP binding assay buffer (50 mM Tris pH 7.4, 120 mM NaCl, 5 mM MgCl2, 2 mM EGTA, 1 mg/ml BSA, 0.2 mg/ml bacitracin, 0.02 mg/ml aprotinin, 0.01 mg/ml saponin, 10 μM GDP) and added to assay tubes at a concentration of 35 μg protein/reaction tube. After adding increasing doses of histamine at concentrations ranging from 10-12 M to 10^−5 M, reactions are initiated by the addition of 125 pM GTP-gamma^35S (PERKIN ELMER; Boston, Mass.) with a final assay volume of 0.20 ml. In competition experiments, non-radiolabeled test compounds are added to separate reactions at concentrations ranging from 10^−10 M to 10^−6 M along with 1 μM histamine to yield a final volume of 0.20 ml.
Neutral antagonists are antagonists that are substantially free of inherent agonist activity, and include those test compounds that reduce the histamine-stimulated GTP binding activity towards, but not below, baseline levels. In contrast, in the absence of added histamine, inverse agonists reduce the GTP binding activity of the receptor-containing membranes below baseline.
After a 60-min incubation at room temperature, reactions are terminated by vacuum filtration over WHATMAN GF/C filters (pre-soaked in wash buffer, 0.1% BSA) followed by washing with ice-cold wash buffer (50 mM Tris pH 7.4, 120 mM NaCl). The amount of receptor-bound (and thereby membrane-bound) GTP-gamma^35S is determined by measuring the filter-bound radioactivity, preferably by liquid scintillation spectrometry of the washed filters. Non-specific binding is determined in parallel assays including 10 μM unlabeled GTP-gammaS and typically represents less than 5 percent of total binding. Data is expressed as percent above basal (baseline). The results of GTP binding experiments are analyzed using SIGMAPLOT software (SPSS Inc., Chicago, Ill.). IC50 values are calculated by non-linear regression analysis of dose-response curves using Kaleidograph (Synergy Software, Reading, Pa.).
Alternatively the data is analyzed as follows. First, the average bound radioactivity from negative control wells (no agonist) is subtracted from the bound radioactivity detected for each of the other experimental wells. Second, average bound radioactivity is calculated for the positive control wells (agonist wells). Then, percent inhibition for each compound tested is calculated using the equation: [formula]
Calculated IC50 values are converted to Ki values by the Cheng-Prusoff correction (Cheng and Prusoff (1973) Biochem. Pharmacol. 22(23):3099-3108). Accordingly, the following equation: Ki=IC50/(1+[L]/EC50) is used, where [L] is the histamine concentration in the GTP binding assay, and EC50 is the concentration of histamine producing a 50% response, as determined by a dose-response analysis using concentrations of histamine ranging from 10^−10 M to 10^−6 M. […]

T1 sequence (Q9Y5N1 with tags, fused parts or gaps): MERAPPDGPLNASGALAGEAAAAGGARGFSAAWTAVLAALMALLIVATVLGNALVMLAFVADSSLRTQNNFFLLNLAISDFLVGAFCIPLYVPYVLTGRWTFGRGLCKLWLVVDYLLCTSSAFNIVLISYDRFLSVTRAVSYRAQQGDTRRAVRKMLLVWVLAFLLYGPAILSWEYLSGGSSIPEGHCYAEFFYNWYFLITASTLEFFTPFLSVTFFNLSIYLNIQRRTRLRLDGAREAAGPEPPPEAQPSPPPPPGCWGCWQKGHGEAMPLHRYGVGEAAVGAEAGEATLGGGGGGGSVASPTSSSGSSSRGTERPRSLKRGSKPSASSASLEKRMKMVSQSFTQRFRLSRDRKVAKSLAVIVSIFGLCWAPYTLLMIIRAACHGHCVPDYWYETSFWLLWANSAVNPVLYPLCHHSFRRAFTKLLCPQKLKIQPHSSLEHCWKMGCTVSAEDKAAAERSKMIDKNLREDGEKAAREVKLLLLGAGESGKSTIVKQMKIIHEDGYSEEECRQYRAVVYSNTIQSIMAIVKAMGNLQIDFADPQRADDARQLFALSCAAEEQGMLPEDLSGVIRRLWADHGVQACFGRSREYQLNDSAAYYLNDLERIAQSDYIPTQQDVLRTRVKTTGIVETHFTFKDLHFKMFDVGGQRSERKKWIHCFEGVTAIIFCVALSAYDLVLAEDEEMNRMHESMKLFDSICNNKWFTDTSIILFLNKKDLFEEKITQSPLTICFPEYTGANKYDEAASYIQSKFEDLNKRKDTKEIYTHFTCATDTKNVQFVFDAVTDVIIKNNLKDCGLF

SMILES	Ki
CC(C)(C)N1CCN(c2ncnc3c2CCN(Cc2ccccc2)C3)CC1 [Compound 13, 7-benzyl-4-(4-tert-butylpiperazin-1-yl)-5,6,7,8-tetrahydropyrido[3,4-d]pyrimidine]	< 1000 nM
c1ccc(CN2CCc3ncnc(N4CCN(C5CCC5)CC4)c3CC2)cc1 [Compound 142, 7-benzyl-4-(4-cyclobutylpiperazin-1-yl)-6,7,8,9-tetrahydro-5H-pyrimido[4,5-d]azepine]	< 1000 nM
c1nc2c(c(N3CCN(C4CCC4)CC3)n1)CCNCC2 [Compound 144, 4-(4-cyclobutylpiperazin-1-yl)-6,7,8,9-tetrahydro-5H-pyrimido[4,5-d]azepine]	< 1000 nM
c1nc(N2CCN(C3CCC3)CC2)nc2c1CN(CC1CCCCC1)CC2 [Compound 607, 2-(4-cyclobutylpiperazin-1-yl)-6-(cyclohexylmethyl)-5,6,7,8-tetrahydropyrido[4,3-d]pyrimidine]	< 1000 nM

Results, then the compound that gave them:

Ki	SMILES
< 1000 nM	CC(=O)c1ccc(OCC(=O)N2CCc3ncnc(N4CCN(C5CCC5)CC4)c3CC2)cc1 [Compound 143, 1-(4-{2-[4-(4-cyclobutylpiperazin-1-yl)-5,6,8,9-tetrahydro-7H-pyrimido[4,5-d]azepin-7-yl]-2-oxoethoxy}phenyl)ethanone]
< 1000 nM	c1ccc(CN2CCc3nc(N4CCN(C5CCC5)CC4)ncc3C2)cc1 [Compound 605, 6-benzyl-2-(4-cyclobutylpiperazin-1-yl)-5,6,7,8-tetrahydropyrido[4,3-d]pyrimidine]
< 1000 nM	CCN1CCc2nc(N3CCN(C4CCC4)CC3)ncc2C1 [Compound 606, 2-(4-cyclobutylpiperazin-1-yl)-6-ethyl-5,6,7,8-tetrahydropyrido[4,3-d]pyrimidine]
< 1000 nM	CC(=O)N1CCc2nc(N3CCN(C4CCC4)CC3)ncc2C1 [Compound 608, 6-acetyl-2-(4-cyclobutylpiperazin-1-yl)-5,6,7,8-tetrahydropyrido[4,3-d]pyrimidine]

Same assay, conditions: P2 membranes of Sf9 cells, 1 μM histamine as agonist; read-out: Ki in the assay of Example 7

SMILES	Ki
c1nc2c(c(N3CCN(C4CCC4)CC3)n1)CCN(CC1CCCCC1)CC2 [Compound 6, 4-(4-Cyclobutyl-piperazin-1-yl)-7-cyclohexylmethyl-6,7,8,9-tetrahydro-5H-pyrimido[3,4-d]azepine]	< 1000 nM
O=C(c1ccccc1)N1CCc2ncnc(N3CCN(C4CCC4)CC3)c2CC1 [Compound 8, [4-(4-Cyclobutyl-piperazin-1-yl)-5,6,8,9-tetrahydro-pyrimido[4,5-d]azepin-7-yl]-phenyl-methanone]	< 1000 nM
c1nc(N2CCN(C3CCC3)CC2)nc2c1CCN(CC1CCCCC1)CC2 [Compound 9, 2-(4-Cyclobutyl-piperazin-1-yl)-7-cyclohexylmethyl-6,7,8,9-tetrahydro-5H-pyrimido[4.5-d]azepine]	< 1000 nM

More lines, now with the values ahead:

Ki	SMILES
< 1000 nM	CC(=O)c1ccc(N2CCc3nc(N4CCN(C5CCC5)CC4)ncc3C2)cc1 [Compound 5, 1-{4-[2-(4-Cyclobutyl-piperazin-1-yl)-7,8-dihydro-5H-pyrido[4,3-d]pyrimidin-6-yl]-phenyl}-ethanone]
< 1000 nM	CC(=O)c1ccc(N2CCc3ncnc(N4CCN(C5CCC5)CC4)c3CC2)cc1 [Compound 7, 1-{4-[4-(4-Cyclobutyl-piperazin-1-yl)-5,6,8,9-tetrahydro-pyrimido[4,5-d]azepin-7-yl]-phenyl}-ethanone]

Same assay, conditions: assay of Example 7; symbol "*" in column headed Ki; read-out: Ki

SMILES	Ki
c1nc(N2CCN(C3CCC3)CC2)nc2c1CCN(C1CCOCC1)CC2 [Compound 591, 2-(4-cyclobutylpiperazin-1-yl)-7-(tetrahydro-2H-pyran-4-yl)-6,7,8,9-tetrahydro-5H-pyrimido[4,5-d]azepine]	< 1000 nM
FC1(F)CCC(CN2CCc3cnc(N4CCN(C5CCC5)CC4)nc3CC2)CC1 [Compound 594, 2-(4-cyclobutylpiperazin-1-yl)-7-[(4,4-difluorocyclohexyl)methyl]-6,7,8,9-tetrahydro-5H-pyrimido[4,5-d]azepine]	< 1000 nM
FC(F)(F)CCN1CCc2cnc(N3CCN(C4CCC4)CC3)nc2CC1 [Compound 595, 2-(4-cyclobutylpiperazin-1-yl)-7-(3,3,3-trifluoropropyl)-6,7,8,9-tetrahydro-5H-pyrimido[4,5-d]azepine]	< 1000 nM
CC1CCC[C@@H]2CN(c3ncc4c(n3)CCN(C3CCC3)CC4)CCN12 (some centres unmarked) [Compound 596, 7-cyclobutyl-2-(6-methyloctahydro-2H-pyrido[1,2-a]pyrazin-2-yl)-6,7,8,9-tetrahydro-5H-pyrimido[4,5-d]azepine]	< 1000 nM
CC1CCC[C@@H]2CN(c3ncc4c(n3)CCN(CC3CCOCC3)CC4)CCN12 (some centres unmarked) [Compound 597, 2-(6-methyloctahydro-2H-pyrido[1,2-a]pyrazin-2-yl)-7-(tetrahydro-2H-pyran-4-ylmethyl)-6,7,8,9-tetrahydro-5H-pyrimido[4,5-d]azepine]	< 1000 nM
CCN1CCN(c2ncc3c(n2)CCN(CC2CCOCC2)CC3)CC1 [Compound 598, 2-(4-ethylpiperazin-1-yl)-7-(tetrahydro-2H-pyran-4-ylmethyl)-6,7,8,9-tetrahydro-5H-pyrimido[4,5-d]azepine]	< 1000 nM
FC(F)(F)CN1CCN(c2ncc3c(n2)CCN(C2CCC2)CC3)CC1 [Compound 602, 7-cyclobutyl-2-[4-(2,2,2-trifluoroethyl)piperazin-1-yl]-6,7,8,9-tetrahydro-5H-pyrimido[4,5-d]azepine]	< 1000 nM
CNC(=O)c1ccc(N2CCN(c3ncc4c(n3)CCN(CC3CCOCC3)CC4)CC2)nc1 [Compound 603, N-methyl-6-{4-[7-(tetrahydro-2H-pyran-4-ylmethyl)-6,7,8,9-tetrahydro-5H-pyrimido[4,5-d]azepin-2-yl]piperazin-1-yl}nicotinamide]	< 1000 nM

The next lines start with the values.

Ki	SMILES
< 1000 nM	O=C(c1ccccc1)N1CCc2cnc(N3CCN(C4CCC4)CC3)nc2CC1 [Compound 183, 7-benzoyl-2-(4-cyclobutylpiperazin-1-yl)-6,7,8,9-tetrahydro-5H-pyrimido[4,5-d]azepine]
< 1000 nM	c1nc(N2CCN(C3CCC3)CC2)nc2c1CCN(C1CCC1)CC2 [Compound 590, 7-cyclobutyl-2-(4-cyclobutylpiperazin-1-yl)-6,7,8,9-tetrahydro-5H-pyrimido[4,5-d]azepine]
< 1000 nM	FC(F)(F)CN1CCc2cnc(N3CCN(C4CCC4)CC3)nc2CC1 [Compound 592, 2-(4-cyclobutylpiperazin-1-yl)-7-(2,2,2-trifluoroethyl)-6,7,8,9-tetrahydro-5H-pyrimido[4,5-d]azepine]
< 1000 nM	COCCN1CCc2cnc(N3CCN(C4CCC4)CC3)nc2CC1 [Compound 593, 2-(4-cyclobutylpiperazin-1-yl)-7-(2-methoxyethyl)-6,7,8,9-tetrahydro-5H-pyrimido[4,5-d]azepine]
< 1000 nM	CCN1CCN(c2ncc3c(n2)CCN(C2CCC2)CC3)CC1 [Compound 599, 7-cyclobutyl-2-(4-ethylpiperazin-1-yl)-6,7,8,9-tetrahydro-5H-pyrimido[4,5-d]azepine]
< 1000 nM	CC(=O)N1CCN(c2ncc3c(n2)CCN(C2CCC2)CC3)CC1 [Compound 600, 2-(4-acetylpiperazin-1-yl)-7-cyclobutyl-6,7,8,9-tetrahydro-5H-pyrimido[4,5-d]azepine]
< 1000 nM	CC(C)(C)OC(=O)N1CCN(c2ncc3c(n2)CCN(C2CCC2)CC3)CC1 [Compound 601, tert-butyl 4-(7-cyclobutyl-6,7,8,9-tetrahydro-5H-pyrimido[4,5-d]azepin-2-yl)piperazine-1-carboxylate]
< 1000 nM	CNC(=O)c1ccc(N2CCN(c3ncc4c(n3)CCN(C3CCC3)CC4)CC2)nc1 [Compound 604, 6-[4-(7-cyclobutyl-6,7,8,9-tetrahydro-5H-pyrimido[4,5-d]azepin-2-yl]piperazin-1-yl]-N-methylnicotinamide]
